What follows are compounds tested against T1, 5-lipoxygenase (5-LO) (Rattus norvegicus, UniProt P12527) (assay: RBL-1 cell 5-lipoxygenase and cyclooxygenase - Homogenate (Procedure I)). Conditions: RBL-1 homogenate supernatant, 5-HETE; read-out: Procedure I (5-LO) Homog. IC50.
T1 construct: endogenous in cells; host or cells: intact RBL-1 (rat basophilic leukemia) cells, stimulated with calcium ionophore A23187
T1 sequence (P12527 1-673): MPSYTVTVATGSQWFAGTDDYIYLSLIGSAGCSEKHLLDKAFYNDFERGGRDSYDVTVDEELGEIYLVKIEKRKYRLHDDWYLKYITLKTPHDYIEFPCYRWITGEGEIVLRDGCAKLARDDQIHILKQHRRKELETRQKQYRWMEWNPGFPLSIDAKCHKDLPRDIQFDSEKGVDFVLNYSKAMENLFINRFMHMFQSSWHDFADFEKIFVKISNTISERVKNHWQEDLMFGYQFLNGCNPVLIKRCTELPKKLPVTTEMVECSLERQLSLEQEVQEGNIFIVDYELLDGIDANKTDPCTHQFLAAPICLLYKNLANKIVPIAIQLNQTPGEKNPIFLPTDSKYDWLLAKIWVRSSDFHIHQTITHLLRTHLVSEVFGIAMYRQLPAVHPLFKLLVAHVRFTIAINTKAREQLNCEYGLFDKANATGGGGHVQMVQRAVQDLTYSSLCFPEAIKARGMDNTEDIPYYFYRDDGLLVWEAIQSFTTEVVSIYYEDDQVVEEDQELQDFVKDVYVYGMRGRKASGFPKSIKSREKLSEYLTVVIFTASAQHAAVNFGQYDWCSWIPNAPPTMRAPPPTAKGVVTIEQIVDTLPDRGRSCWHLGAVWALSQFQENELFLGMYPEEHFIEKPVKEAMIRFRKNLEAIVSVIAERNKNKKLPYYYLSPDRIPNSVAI
Type: biochemical
Description: RBL-1 cell 5-lipoxygenase and cyclooxugenase - Homogenate
Rat basophilic leukemia cells (RBL-1; 5×10^7 viable cells/mL) were disrupted by homogenization on ice (four 20 sec bursts) with a Brinkman polytron. […] The homogenate was then centrifuged at 9,220×g for 48 minutes at 4° C. The pellet was discarded and the supernatant was saved as the source of enzymes. The supernatant was pre-incubated for five minutes at 37° C. in the presence of 2 mM of CaCl2 and compound or vehicle (1% DMSO). The conversion of AA into products by CO and LO was initiated by adding 10 μL (50 μCi) of 1-^14 C-AA to each tube and incubated at 37° C. for 20 minutes. The reaction was stopped by adjusting the pH of each sample to 3 to 3.5 with 2M formic acid. Samples were extracted with three volumes of chloroform to isolate the products of 5-LO formed during the reaction. Fractions were dried under nitrogen, then resuspended in 40 μL of chloroform and spotted onto silica gel HL plates. The plates were developed in A-9 solvent. The dried plates were analyzed using a Bioscan Imaging TLC scanner to determine the percentage of radiolabelled M converted to 5-HETE (LO product) and PGD2 (CO product) in each sample.

SMILES	IC50 [µM]
COc1ccc(Oc2ccc(NS(C)(=O)=O)s2)cc1 [Example 7]	0.02
CS(=O)(=O)Nc1ccc(Oc2ccc3ccccc3c2)s1 [Example 22]	0.06
CC(C)S(=O)(=O)Nc1ccc(Oc2ccccc2)s1 [Example 25]	0.05
Cc1cccc(Oc2ccc(NS(C)(=O)=O)s2)c1C [Example 9]	0.06
CS(=O)(=O)Nc1ccc(Oc2cc(C(F)(F)F)cc(C(F)(F)F)c2)s1 [Example 18]	0.31
CS(=O)(=O)Nc1ccc(-c2ccccc2)s1 [Example 33, N-5-[phenyl-thien-2-yl]methanesulfonamide]	0.11
CS(=O)(=O)Nc1ccc(Oc2ccc(S(C)(=O)=O)cc2)s1 [Example 5]	1.8
Cc1cc(Oc2ccc(NS(C)(=O)=O)s2)ccc1F [Example 11]	0.02
CS(=O)(=O)Nc1ccc(Oc2ccccc2)s1 [Example 2]	0.07
O=S(=O)(Nc1ccc(Oc2ccccc2)s1)c1ccccc1 [Example 27]	0.1
CCCCS(=O)(=O)Nc1ccc(Oc2ccccc2)s1 [Example 24]	0.36
CS(=O)(=O)Nc1ccc(-c2ccc(F)cc2)s1 [Example 32, N-5-[(4-fluoro)phenyl-thien-2-yl]methanesulfonamide]	0.15
CS(=O)(=O)Nc1ccc(Oc2ccc(F)cc2Br)s1 [Example 17]	0.06
CS(=O)(=O)Nc1ccc(Sc2ccccc2)s1 [Example 28]	0.19
CS(=O)(=O)Nc1ccc(Oc2cccc(C(F)(F)F)c2)s1 [Example 10]	0.06

The compounds below were run against T1, 5-lipoxygenase (5-LO) (assay: RBL-1 cell 5-lipoxygenase and cyclooxygenase - Whole cells (Procedure II)). Conditions: intact RBL-1 cells, 5-HETE; read-out: Procedure II (5-LO) Wh Cell IC50.
Type: cell-based
Description: RBL-1 Cell 5-Lipoxygenase and cyclooxygenase - Whole cells
The ability to inhibit 5-LO and CO in intact RBL-1 cells was also evaluated. […] Cells were collected by centrifugation, washed once in HBSS, and resuspended at a concentration of 1×10^5 cells/mL. Cells were incubated in the presence of vehicle or drug then centrifuged at 800×g for 10 minutes at 4° C. The supernatant was removed by aspiration and the cells were resuspended in 0.5 mL of HBSS. […] The conversion of M to 5-LO products was initiated by the addition of 10 μL (50 uCi) of 1-^14 C-AA. Products were isolated by acidification and extraction, followed by thin layer chromatography analysis as described above. Radioactive areas corresponding to authentic 5-LO (5-HETE) and CO (PGD2) products were quantitated by the Bioscan 2000 Imaging System.

SMILES	IC50 [µM]
COc1ccc(Oc2ccc(NS(C)(=O)=O)s2)cc1 [Example 7]	1.45
CS(=O)(=O)Nc1ccc(Oc2ccc3ccccc3c2)s1 [Example 22]	0.77
CC(C)S(=O)(=O)Nc1ccc(Oc2ccccc2)s1 [Example 25]	1.04
Cc1cccc(Oc2ccc(NS(C)(=O)=O)s2)c1C [Example 9]	0.66
CS(=O)(=O)Nc1ccc(Oc2cc(C(F)(F)F)cc(C(F)(F)F)c2)s1 [Example 18]	6.5
CS(=O)(=O)Nc1ccc(-c2ccccc2)s1 [Example 33, N-5-[phenyl-thien-2-yl]methanesulfonamide]	0.79
CS(=O)(=O)Nc1ccc(Oc2ccc(S(C)(=O)=O)cc2)s1 [Example 5]	38.5
Cc1cc(Oc2ccc(NS(C)(=O)=O)s2)ccc1F [Example 11]	0.31
CS(=O)(=O)Nc1ccc(Oc2ccccc2)s1 [Example 2]	0.47
O=S(=O)(Nc1ccc(Oc2ccccc2)s1)c1ccccc1 [Example 27]	0.9
CCCCS(=O)(=O)Nc1ccc(Oc2ccccc2)s1 [Example 24]	1.12
CS(=O)(=O)Nc1ccc(-c2ccc(F)cc2)s1 [Example 32, N-5-[(4-fluoro)phenyl-thien-2-yl]methanesulfonamide]	2.1
CS(=O)(=O)Nc1ccc(Oc2ccc(F)cc2Br)s1 [Example 17]	1.4
CS(=O)(=O)Nc1ccc(Sc2ccccc2)s1 [Example 28]	0.7
CS(=O)(=O)Nc1ccc(Oc2cccc(C(F)(F)F)c2)s1 [Example 10]	0.78

The compounds below were run against T2, Human Prostaglandin H2 Synthase Typ II (Cox-2) (Homo sapiens, UniProt P35354) (assay: Human Prostaglandin H2 Synthase Typ II (Cox-2) Whole Cell Assay, ECV-304 cells (Procedure III)). Conditions: @ 10 μM, ECV-304 whole cells; read-out: Procedure III (COX-2) Wh Cell, percent inhibition of PGE2 produced.
T2 construct: endogenous in cells; host or cells: ECV-304 cells treated with PMA and ionomycin for 16 hours
T2 sequence (P35354 18-604): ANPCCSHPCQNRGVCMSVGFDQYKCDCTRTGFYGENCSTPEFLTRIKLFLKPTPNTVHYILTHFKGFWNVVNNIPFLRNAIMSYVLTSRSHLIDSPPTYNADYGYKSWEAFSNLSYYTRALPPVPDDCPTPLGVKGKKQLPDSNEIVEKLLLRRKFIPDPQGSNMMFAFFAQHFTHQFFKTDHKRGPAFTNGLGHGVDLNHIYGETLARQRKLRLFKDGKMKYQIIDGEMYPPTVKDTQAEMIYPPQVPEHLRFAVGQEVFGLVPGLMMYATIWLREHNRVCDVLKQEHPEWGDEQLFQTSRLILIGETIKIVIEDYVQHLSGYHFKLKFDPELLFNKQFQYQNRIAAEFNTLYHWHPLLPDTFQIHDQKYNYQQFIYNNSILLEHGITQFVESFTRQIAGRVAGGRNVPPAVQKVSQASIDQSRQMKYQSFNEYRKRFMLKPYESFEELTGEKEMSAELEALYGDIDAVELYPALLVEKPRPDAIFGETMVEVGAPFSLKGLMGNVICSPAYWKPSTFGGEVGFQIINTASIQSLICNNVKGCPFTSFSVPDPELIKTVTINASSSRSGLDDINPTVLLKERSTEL
Type: cell-based
Description: Human Prostaglandin H2 Synthase Typ II (Cox-2) Whole Cell Assay (Multiple Concentrations)
ECV-304 (human, endothelial, umbilical cord) cells are maintained in culture in a suitable medium, and are trypsinized and plated at a density of 1×10^6 cells per well of a 6 well plate prior to assay. Approximately 28 hours later, 50 μg/ml PMA and […] ionomycin (both final concentrations) are added to each well and incubated for an additional 16 hours. Vehicle or test compounds are incubated with the cells for five minutes prior to initiation of Cox-2 enzyme activity by the addition of 30 μM arachidonic acid. Ten minutes later, an aliquot of the supernatant is withdrawn and the amount of PGE2 present quantitated by radioimmunoassay. Activity, reported as percent inhibition of PGE2 produced, is calculated as follows: […]

SMILES	inhibition at 10 µM [%]
COc1ccc(Oc2ccc(NS(C)(=O)=O)s2)cc1 [Example 7]	0
CC(C)S(=O)(=O)Nc1ccc(Oc2ccccc2)s1 [Example 25]	16
Cc1cccc(Oc2ccc(NS(C)(=O)=O)s2)c1C [Example 9]	54
CS(=O)(=O)Nc1ccc(Oc2cc(C(F)(F)F)cc(C(F)(F)F)c2)s1 [Example 18]	8
CS(=O)(=O)Nc1ccc(-c2ccccc2)s1 [Example 33, N-5-[phenyl-thien-2-yl]methanesulfonamide]	31
CS(=O)(=O)Nc1ccc(Oc2ccc(S(C)(=O)=O)cc2)s1 [Example 5]	0
O=S(=O)(Nc1ccc(Oc2ccccc2)s1)c1ccccc1 [Example 27]	44
CS(=O)(=O)Nc1ccc(-c2ccc(F)cc2)s1 [Example 32, N-5-[(4-fluoro)phenyl-thien-2-yl]methanesulfonamide]	3
CS(=O)(=O)Nc1ccc(Sc2ccccc2)s1 [Example 28]	33

Same assay, conditions: ECV-304 whole cells, PGE2 produced; read-out: Procedure III (COX-2) Wh Cell IC50

SMILES	IC50 [µM]
CS(=O)(=O)Nc1ccc(Oc2ccc3ccccc3c2)s1 [Example 22]	10
CS(=O)(=O)Nc1ccc(Oc2cccc3c2CCCC3)s1 [Example 23]	10
Cc1cc(Oc2ccc(NS(C)(=O)=O)s2)ccc1F [Example 11]	1.18
CS(=O)(=O)Nc1ccc(Oc2ccccc2)s1 [Example 2]	4.22
CCCCS(=O)(=O)Nc1ccc(Oc2ccccc2)s1 [Example 24]	10
CS(=O)(=O)Nc1ccc(Oc2ccc(F)cc2Br)s1 [Example 17]	5.29
CS(=O)(=O)Nc1ccc(Oc2cccc(C(F)(F)F)c2)s1 [Example 10]	1.02
